# Experimental data: patent US4845123A, “Reduction in vivo of the inappropriate levels of endogenous and environmental-derived compounds by sustained-release inhibitors of β- g” (priority 1985, dated 1989)
# Legend:
# Morris Hepatoma 7777 = experiment: growth of transplanted Morris Hepatoma 7777; assay type: in vivo, rat; details: 2% CGT diet from one week before transplant, male Buffalo rats
# Description: One group of male Buffalo rats was put on 2% CGT diet one week before the hepatoma transplant, while the other group of rats (controls) was kept on the regular chow diet. A minimum number of Morris Hepatoma 7777 cells consistent with tumor growth were innoculated subcutaneously in the left flank of all rats. Tumor diameters were measured at least twice weekly, and tumor volume was calculated.
# [1] = rat, in vivo, ip
# Description: TCDD was administered i.p. in a single dose of 40 μg/kg in sesame oil (0.5 ml) to 125 gm female Sprague Dawley rats. One group of 4 rats received 2 doses of CGT (4.5 mmole/kg) in sesame oil (1.0 ml) by stomach tube at 3 hours and a second dose at 0.5 hours before treatment with TCDD. A second, TCDD-treated group received oil only in place of the CGT. Control rats received oil only by stomach tube and i.p. injection.
# [2] = Furuno et al. 1975; cited from earlier work
# Organ DNA = experiment: in vivo covalent binding of [14C]BP to organ DNA; design: species or system rat; details: for Covalent Binding Index (of BP), +DAGDL: DAGDL 1.5 mmol/kg 0.5 hours before [14C]BP; for inhibition at 1500 µmol/kg: Rattus norvegicus, DAGDL 1.5 mmol/kg
# Description: Experimental rats were pretreated 0.5 hours earlier with one dose of 1.5 mmol/kg body weight of DAGDL which was administered by stomach tube as a suspension in 1.0 ml of sesame oil, while control rats received the vehicle only. The experimental and control group contained 2 rats each. Heart, kidney, liver, lung and mammary gland were removed under ether anesthesia 48 hours post-administration of BP. The DNA was isolated immediately and purified by chloroform phenol extraction of organ homogenates. In the case of mammary gland, the homogenate was treated with collagenase II. Following purification with ribonuclease A and protease K, the DNA concentration was estimated by U.V. absorption and the bound radioactivity was determined by radioassay in liquid scintillant.
# In this experiment 50 day old female rats of the Sprague Dawley strain received 1.5 mmol/kg of DAGDL 0.5 hours before the intraperitoneal injection of 7.9 μmol/kg of [^14 C]BP. The DNA was extracted from the tissues and radioassayed by established procedures.
# serum β-glucuronidase [3] = target: T1, serum β-glucuronidase (Rattus norvegicus, UniProt P06760); assay type: in vivo; details: 1.0 mmoles/kg i.g., assayed 1 hour after administration
# T1 sequence (P06760 23-648): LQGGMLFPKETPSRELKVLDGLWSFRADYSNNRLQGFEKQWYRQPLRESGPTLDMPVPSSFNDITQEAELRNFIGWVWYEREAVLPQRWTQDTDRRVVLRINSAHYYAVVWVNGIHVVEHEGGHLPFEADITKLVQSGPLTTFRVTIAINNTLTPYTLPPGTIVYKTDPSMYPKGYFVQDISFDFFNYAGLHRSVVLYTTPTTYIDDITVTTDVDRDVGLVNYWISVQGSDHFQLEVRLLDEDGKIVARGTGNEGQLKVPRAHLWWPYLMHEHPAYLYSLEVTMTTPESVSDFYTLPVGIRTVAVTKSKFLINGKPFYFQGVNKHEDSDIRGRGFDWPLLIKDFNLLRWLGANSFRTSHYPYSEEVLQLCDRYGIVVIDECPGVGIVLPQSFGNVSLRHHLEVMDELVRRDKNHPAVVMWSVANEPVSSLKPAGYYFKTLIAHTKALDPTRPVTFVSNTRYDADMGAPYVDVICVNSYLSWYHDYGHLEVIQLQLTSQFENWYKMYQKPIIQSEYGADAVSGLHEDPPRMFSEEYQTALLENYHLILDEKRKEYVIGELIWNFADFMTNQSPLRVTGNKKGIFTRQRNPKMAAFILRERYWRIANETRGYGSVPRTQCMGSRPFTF
# [4] = system: diabetes, rheumatoid arthritis, toxemia in pregnancy and bladder cancer; details: review of the medical literature; cited from earlier work
# bladder tumor [5] = details: Uemura et al. 1975; cited from earlier work
# [6] = system: tumor initiation by 7,12-dimethylbenzanthracene (DMBA); details: Walaszek et al. 1984; cited from earlier work
# bladder tumors = details: Boyland et al. 1964 (GL); Katayama 1972 (DAGDL); cited from earlier work
# bladder tumor [7] = details: Miyakawa et al. 1973; DAGDL given at same time as carcinogen; cited from earlier work
# serum β-glucuronidase [8] = target: T1, serum β-glucuronidase; details: Iida et al. 1965; cited from earlier work
# [9] = system: MNU-induced mammary tumors; experiment: MNU-induced mammary carcinogenesis; assay type: in vivo, rat; details: MNU 40 mg/kg i.v., DAGDL 2 dose schedule; FIG. 10
# Description: In this experiment, MNU (40 mg/kg) was administered to 50 day old Sprague Dawley female rats by i.v. injection. One half of the rats were co-administered DAGDL according to a 2 dose schedule.
# [10] = acute toxicity (weight loss) of N-methylnitrosourea; assay type: in vivo, rat; details: 21 days after treatment with MNU
compound,measurement,setting,value
"O=C([O-])[C@@H](O)[C@@H](O)[C@H](O)[C@@H](O)C(=O)[O-].[Ca+2] [CGT, calcium D-glucarate]",tumor growth compared with control group,Morris Hepatoma 7777,slightly slower
same,effect on TCDD toxicity,[1],"definite anti-""TCDD toxicity"" effect"
"CC(=O)O[C@@H]1C(=O)O[C@H]2[C@@H]1OC(=O)[C@@H]2OC(C)=O [DAGDL, 2,5-di-O-acetyl-D-glucaro-1,4;6,3-dilactone]",clearance of antibiotics which cause kidney damage,[2],inconclusive results
same,"Covalent Binding Index (of BP), +DAGDL",Organ DNA; Heart,10
same,"Covalent Binding Index (of BP), +DAGDL",Organ DNA; Kidney,12
same,"Covalent Binding Index (of BP), +DAGDL",Organ DNA; Liver,9
same,"Covalent Binding Index (of BP), +DAGDL",Organ DNA; Lung,8
same,"Covalent Binding Index (of BP), +DAGDL",Organ DNA; Mammary gland,20
same,inhibition at 1500 µmol/kg,Organ DNA; Heart,44%
same,inhibition at 1500 µmol/kg,Organ DNA; Kidney,69%
same,inhibition at 1500 µmol/kg,Organ DNA; Liver,63%
same,inhibition at 1500 µmol/kg,Organ DNA; Lung,72%
same,inhibition at 1500 µmol/kg,Organ DNA; Mammary gland,47%
same,reduction of serum β-glucuronidase activity,serum β-glucuronidase [3],50%
same,treatment of existing diseases,[4],unsuccessful
same,inhibition of N-butyl-N-(4-butanol)nitrosamine-mediated bladder tumor,bladder tumor [5],unsuccessful
same,effect on initiation of tumor by DMBA,[6],inhibited
same,clinical effect in prevention of bladder tumors,bladder tumors,only a slight beneficial effect
same,effect on bladder tumor incidence with 2-AAF,bladder tumor [7],did not disclose any significant difference
same,potency as in vivo β-glucuronidase inhibitor,serum β-glucuronidase [8],potent
same,inhibition of mammary tumor development,[9],approx. 4 fold
same,difference in toxicity-induced weight loss of DAGDL-treated and non-treated rats,[10],approximately 100 g
